Measured values published in patent US8518954B2, “Inhibitors of folic acid-dependent enzymes” (priority 2005, dated 2013).

Assays:
L 1210 cells = test: Tumor inhibition in mice, subcutaneous L1210 cells; format: in vivo; details: DBA/2 mice, L1210 s.c.; 0.5 mg/kg; saline control 6.7 days
Procedure: The ability of compounds of formula I to inhibit tumor growth in mice was tested as follows. 5×10^6 L 1210 cells were injected subcutaneously in the axillary region of DBA/2 mice (groups of 8 mice/treatment). Following intraperitoneal administration of saline solution only or saline solution containing a compound of formula I the length and width of the control tumor (receiving only saline) was measured at the indicated time and compared to those of animals receiving test compound to calculate the percentage of inhibition. Intraperitoneal administration of a saline solution containing the test compound, daily for 6 days, led to 60% tumor-free long term survivors (tumor weight zero). Median survival times for saline-treated control animals and animals receiving Compound 4 (0.5 mg/kg) were 6.7 and 15.6 days, respectively. Oral administration of the compound required a higher dosage of the inhibitor and led to a less-marked, but still significant reduction of the tumor weight and 25% long-term survivors as compared with the saline-treated control group.

carcinoma W256 = test: Walker-256 rat tumor model; format: in vivo
Procedure: Compounds of formula I were also active in vivo against the carcinoma W256 (TGI=28%), most likely due to the higher solubility and thus passive transport into the tumor compared with other anti-folate agents. Median survival times for saline-treated control animals and animals receiving Compound 4 (1 mg/kg) intraperitoneally in the Walker-256 rat tumor model were 22.5 and >46.3 days, respectively.

[1] = tested on: dihydrofolate reductase (DHFR); details: one representative experiment out of 5; 37° C., pH 7.0, 20 μM dihydrofolate, 100 μM NADPH
[2] = 0.25 mg/kg - 3 doses every 4 days
[3] = 0.5 mg/kg - 3 doses every 4 days

N-[4-[[2,4-diamino-6-pteridinyl)methyl]amino]benzoyl]pseudoglutamic acid [Compound 4]
Median survival time (L 1210 cells): 15.6 days | No. animals surviving at day 30 days post-transplant (carcinoma W256; 0.1 mg/kg - 5 doses every day): 10/10 | Tumor volume (cm^3) ± SE (carcinoma W256; 0.1 mg/kg - 5 doses every day): 14.5 ± 3.8 cm^3 | No. animals surviving at day 30 days post-transplant (carcinoma W256; [2]): 8/10 | Tumor volume (cm^3) ± SE (carcinoma W256; [2]): 23 ± 3.5 cm^3 | No. animals surviving at day 30 days post-transplant (carcinoma W256; [3]): 9/10 | Tumor volume (cm^3) ± SE (carcinoma W256; [3]): 13.4 ± 3.07 cm^3 | No. animals surviving at day 30 days post-transplant (carcinoma W256; 1 mg/kg - one dose): 8/10 | Tumor volume (cm^3) ± SE (carcinoma W256; 1 mg/kg - one dose): 17.1 ± 3.3 cm^3 | Median survival time (carcinoma W256; Walker-256 rat tumor model, 1 mg/kg intraperitoneally, saline control 22.5 days): > 46.3 days | Relative IC50 (IC50(Compound)/IC50(MTX)) [1]: 0.75
